# Measured values taken from publication PMC10302868 (Molecules, 2023).
# Where two headings read alike, the source gives them in different places.
# What was measured:
# H. influenzae ATCC 49247 = experiment: MIC determination; type: cell-based; conditions: Haemophilus influenzae, ATCC49247
# S. pyogenes SPY-0253 = experiment: MIC determination; type: cell-based; conditions: Streptococcus pyogenes, SPY0253
# [1] = test system: E. faecium EFA-0221 (VRE); experiment: MIC determination; type: cell-based; conditions: Enterococcus faecium
# [2] = test system: A. baumannii ATCC BAA-1605; experiment: MIC determination; type: cell-based; conditions: Acinetobacter baumannii, ATCCBAA1605
# S. pneumoniae SPN-1169 = experiment: MIC determination; type: cell-based; conditions: Streptococcus pneumoniae, SPN1169
# [3] = test system: S. aureus SAU-0167 (MRSA); experiment: MIC determination; type: cell-based; conditions: Staphylococcus aureus
# S. epidermidis SEP-1024 = experiment: MIC determination; type: cell-based; conditions: Staphylococcus epidermidis, SEP1024
# E. faecalis EFA-1299 = experiment: MIC determination; type: cell-based; conditions: Enterococcus faecalis, EFA1299
# [4] = test system: S. aureus SAU-9922 (MRSA); experiment: MIC determination; type: cell-based; conditions: Staphylococcus aureus
# S. maltophilia STM-0001 = experiment: MIC determination; type: cell-based; conditions: Stenotrophomonas maltophilia, STM0001
# M. abscessus-GDI = experiment: MIC determination (Microplate Alamar Blue Assay); type: cell-based, Mycobacterium abscessus; conditions: Mycobacteroides abscessus, 72 h
# A. baumannii ATCC 17978 = experiment: MIC determination; type: cell-based; conditions: Acinetobacter baumannii, ATCC17978
# [5] = test system: M. tuberculosis H37Rv ATCC27294; experiment: MIC determination (Microplate Alamar Blue Assay); type: cell-based, Mycobacterium tuberculosis; conditions: M. tuberculosis H37Rv ATCC27294, 7 days
# in vivo = conditions: male, Sprague-Dawley, rat
# in vitro [6] = conditions: African green monkey
# E. coli ATCC 25922 = experiment: MIC determination; type: cell-based; conditions: Escherichia coli, ATCC25922
# [7] = male, Sprague-Dawley, rat, in vivo, iv, 3 mg/kg
# [8] = test system: M. bovis BCG (Pasteur 1173P2); experiment: microbe, parasite or virus in culture; type: cell-based; conditions: Mycobacterium tuberculosis variant bovis BCG, 168 h
# M. abscessus-C58 = experiment: MIC determination (Microplate Alamar Blue Assay); type: cell-based, Mycobacterium abscessus; conditions: Mycobacteroides abscessus; M. abscessus-C58, 72 h
# [9] = test system: S. aureus ATCC 700698 (MRSA); experiment: MIC determination; type: cell-based; conditions: Staphylococcus aureus
# in vitro [10] = type: in vitro ADME; conditions: human, plasma, pH 7.4
# Method: Human plasma (BIOMEX GmbH) was mixed from more than 6 individuals and rat plasma was mixed from more than 10 rats. […] The samples were matched with opposite blank buffer to obtain a final volume of 100 µL with a volume ratio of the matrix: Dialysis Buffer (100 mM sodium phosphate and 150 mM NaCl, pH 7.4) (1:1) in each well. […] The plate was sealed and shaken at 800 rpm for 10 min. Then these T0 samples were stored at 4 °C pending further processing along with other post-dialysis samples. […] The plate was rotated at 100 rpm in a humidified incubator with 5% CO2 at 37 °C for 4 h. At the end of the dialysis, all samples were further processed by protein precipitation for LC-MS/MS analysis. The %bound was calculated using the following equations:%Unbound = 100 × F/T %Bound = 100 − %Unbound
# F = Free compound concentration as determined by the calculated concentration on the buffer side of the membrane.
# T = Total compound concentration as determined by the calculated concentration on the matrix side of the membrane.
# E. faecalis ATCC 29212 = experiment: MIC determination; type: cell-based; conditions: Enterococcus faecalis, ATCC29212
# MDR1-MDCK = conditions: cited from earlier work
# [11] = allometric scaling from rat volume of distribution
# [12] = test system: Wolbachia-infected LDW1 cells (wMel); conditions: cited from earlier work
# in vitro [13] = type: in vitro ADME; conditions: microsomes
# Method: Microsomes from humans and rats were purchased from Corning (Shanghai, China) and Xenotech (Kansas City, KS, USA), respectively. The working solution of liver microsomes was prepared in 100 mM phosphate buffer at 0.56 mg/mL. The quench solution was cold (4 °C) acetonitrile (ACN) containing 200 ng/mL Verapamil and 200 ng/mL Imipramine as internal standards (IS). An amount of 445 µL of the microsomal working solution was transferred into the pre-warmed plates T120 (incubate time: 120 min) and NCF 120 (no co-factor NADPH regenerating system), then the plates were incubated at 37 °C for 10 min with constant shaking. An amount of 54 µL of the liver microsomes was transferred into a blank plate, and 6 µL NADPH and 180 µL quenching solution were added to the blank plate. The microsomal working solution (0.56 mg/mL) and the compound working solution (100 µM) were mixed 3 times thoroughly and 54 µL was immediately removed for the 0 min point. Then 44 µL NADPH cofactor was added to the incubation plate, and shaken at 37 °C for 120 min. At 15, 30, 60, 90, and 120 min, a 60 µL sample was transferred to the quenching solution and centrifuged at 4000 rpm for 20 min at 4 °C [6]. Then, 80 µL supernatant was transferred to the HPLC water and shaken for 10 min before LC-MS/MS analysis.
# P. aeruginosa ATCC 27853 = experiment: MIC determination; type: cell-based; conditions: Pseudomonas aeruginosa, ATCC27853
# [14] = human
# M. smegmatis mc^2155 = experiment: MIC determination (Microplate Alamar Blue Assay); type: cell-based; conditions: Mycolicibacterium smegmatis; M. smegmatis mc^2155, 72 h
# Pharmacokinetics in rats = conditions: Rat
# [15] = test system: S. aureus ATCC 29213 (MSSA); experiment: MIC determination; type: cell-based; conditions: Staphylococcus aureus
# in vitro [16] = type: in vitro ADME; conditions: hepatocytes
# Method: Cryopreserved hepatocytes from male SD rats and humans were both purchased from Bioreclamation-IVT. The human cryopreserved hepatocytes were pooled from 10 human donors with a viability of 77.9% tested by trypan blue. The rats’ cryopreserved hepatocytes were pooled from 12 male SD (Sprague Dawley) rats, and the cell viability was 80.9%. The hepatocytes were diluted to 0.5 × 10^6/mL cell suspension with pre-warmed incubation medium ([…]). […] At 15, 30, 60, and 90 min, the samples were mixed and then 25 μL of each sample was transferred at each time point to a well containing 125 μL of ice-cold stop solution (acetonitrile containing 200 ng/mL tolbutamide and labetalol as internal standards) followed by mixing. The samples were vortexed on a plate shaker at 500 rpm for 10 min, and centrifuged at 3220× g for 20 min at 4 °C. The supernatants were transferred to ultra-pure water and analyzed by LC-MS/MS. […] CLint (hep) = k/million cells per mL CLint (liver) = CLint (hep) × liver weight (g/kg body weight) × hepatocellularity
# M. abscessus-C16 = experiment: MIC determination (Microplate Alamar Blue Assay); type: cell-based, Mycobacterium abscessus; conditions: Mycobacteroides abscessus; M. abscessus-C16, 72 h
# [17] = test system: Wolbachia-infected C6/36 cells (wAlb); conditions: cited from earlier work
# [18] = test system: K. pneumoniae ATCC BAA-1705; experiment: MIC determination; type: cell-based; conditions: Klebsiella pneumoniae, ATCCBAA1705
# M. abscessus-C28 = experiment: MIC determination (Microplate Alamar Blue Assay); type: cell-based, Mycobacterium abscessus; conditions: Mycobacteroides abscessus, 72 h
# [19] = Mycobacterium tuberculosis, 168 h, read-out: MIC
structure (smiles),measurement,setting,value
"O=C(O)c1cn(C2CC2)c2cc(N3CCNCC3)c(F)cc2c1=O [Ciproflox, Ciprofloxacin]",MIC,H. influenzae ATCC 49247,≤ 0.031 µg/mL
same,MIC,S. pyogenes SPY-0253,0.25 µg/mL
same,MIC,[1],> 32 µg/mL
same,MIC,[2],> 32 µg/mL
same,MIC,S. pneumoniae SPN-1169,1 µg/mL
same,MIC,[3],> 32 µg/mL
same,MIC,S. epidermidis SEP-1024,0.25 µg/mL
same,MIC,E. faecalis EFA-1299,0.25 µg/mL
same,MIC,[4],> 32 µg/mL
same,MIC,S. maltophilia STM-0001,2 µg/mL
C=C[C@]1(C)C[C@@H](OC(=O)COc2ccc3c(c2F)B(O)OC3)[C@]2(C)[C@H](C)CC[C@]3(CCC(=O)[C@H]32)[C@@H](C)[C@@H]1O [AN11251],MIC,M. abscessus-GDI,> 20 µg/mL
same,MIC,A. baumannii ATCC 17978,20 µg/mL
same,MIC,H. influenzae ATCC 49247,2 µg/mL
same,MIC,[5],0.952 µg/mL
same,MIC,[5]; [19],0.925 µg/mL
same,bioavailability,in vivo,19.2%
same,Tmax,"in vivo; iv, 3 mg/kg",0 h
same,Vd,"in vivo; iv, 3 mg/kg",1.44 L/kg
same,clearance,"in vivo; iv, 3 mg/kg",19.8 mL/min/kg
same,half-life,"in vivo; iv, 3 mg/kg",1.75 h
same,MRT,"in vivo; iv, 3 mg/kg",1.22 h
same,half-life,"in vivo; po, 10 mg/kg",2.39 h
same,MRT,"in vivo; po, 10 mg/kg",2.26 h
same,MIC,S. pyogenes SPY-0253,0.063 µg/mL
same,CC50,in vitro [6],27 µg/mL
same,MIC,E. coli ATCC 25922,> 32 µg/mL
same,MIC,[1],0.125 µg/mL
same,MIC,[2],32 µg/mL
same,MRT,[7],1.04 h
same,MIC,[8],2.5 µg/mL
same,MIC,M. abscessus-C58,> 20 µg/mL
same,MIC,S. pneumoniae SPN-1169,0.5 µg/mL
same,MIC,[9],< 0.039 µg/mL
same,"fraction unbound at 4 h, 2 µM",in vitro [10],0.024
same,MIC,E. faecalis ATCC 29212,5 µg/mL
same,apparent permeability (Papp),MDR1-MDCK,14.1 ×10⁻⁶ cm/s
same,MIC,[3],0.063 µg/mL
same,predicted human volume of distribution,[11],1.029 L/kg
same,MIC,S. epidermidis SEP-1024,0.063 µg/mL
same,MIC,E. faecalis EFA-1299,4 µg/mL
same,EC50,[12],0.000792 µg/mL
same,CLint scaled,in vitro [13]; human,300 mL/min/kg
same,CLint scaled,in vitro [13]; rat,333 mL/min/kg
same,MIC,P. aeruginosa ATCC 27853,> 32 µg/mL
same,MIC,[4],0.063 µg/mL
same,logP,physchem,4.5
same,half-life,[14],4.2 h
same,MIC,M. smegmatis mc^2155,> 20 µg/mL
same,time until eliminated (plasma concentration-time curve),Pharmacokinetics in rats,≤ 8 h
same,MIC,[15],< 0.039 µg/mL
same,CLint scaled at 20 µg/mL,in vitro [16]; human,180 mL/min/kg
same,hepatocyte CLint at 20 µg/mL,in vitro [16]; human,64.8 µL/min/1e6 cells
same,CLint scaled at 20 µg/mL,"in vitro [16]; male, Sprague-Dawley, rat",876 mL/min/kg
same,MIC,S. maltophilia STM-0001,> 32 µg/mL
same,MIC,M. abscessus-C16,> 20 µg/mL
same,EC50,[17],0.00792 µg/mL
same,MIC,[18],> 32 µg/mL
same,MIC,M. abscessus-C28,> 20 µg/mL
NCC[C@H](O)C(=O)N[C@@H]1C[C@H](N)[C@@H](O[C@H]2O[C@H](CN)[C@@H](O)[C@H](O)[C@H]2O)[C@H](O)[C@H]1O[C@H]1O[C@H](CO)[C@@H](O)[C@H](N)[C@H]1O [Amikacin],MIC,M. abscessus-GDI,6.38 µg/mL
same,MIC,A. baumannii ATCC 17978,2 µg/mL
same,MIC,S. pyogenes SPY-0253,32 µg/mL
same,MIC,E. coli ATCC 25922,8 µg/mL
same,MIC,[1],> 32 µg/mL
same,MIC,M. abscessus-C58,12.8 µg/mL
same,MIC,S. pneumoniae SPN-1169,> 32 µg/mL
same,MIC,[9],> 32 µg/mL
same,MIC,E. faecalis ATCC 29212,> 32 µg/mL
same,MIC,[3],> 32 µg/mL
same,MIC,S. epidermidis SEP-1024,≤ 1 µg/mL
same,MIC,E. faecalis EFA-1299,> 32 µg/mL
same,MIC,P. aeruginosa ATCC 27853,8 µg/mL
same,MIC,[4],2 µg/mL
same,MIC,[15],8 µg/mL
same,MIC,S. maltophilia STM-0001,> 32 µg/mL
same,MIC,M. abscessus-C16,12.7 µg/mL
same,MIC,[18],> 32 µg/mL
same,MIC,M. abscessus-C28,14.5 µg/mL
CO[C@H]1/C=C/O[C@@]2(C)Oc3c(C)c(O)c4c(O)c(c(/C=N/N5CCN(C)CC5)c(O)c4c3C2=O)NC(=O)/C(C)=C\C=C\[C@H](C)[C@H](O)[C@@H](C)[C@@H](O)[C@@H](C)[C@H](OC(C)=O)[C@@H]1C [Rifampicin],MIC,M. abscessus-GDI,> 20 µg/mL
same,MIC,A. baumannii ATCC 17978,2 µg/mL
same,MIC,H. influenzae ATCC 49247,0.25 µg/mL
same,MIC,[5]; [19],0.031 µg/mL
same,MIC,S. pyogenes SPY-0253,0.063 µg/mL
same,MIC,E. coli ATCC 25922,8 µg/mL
same,MIC,[1],4 µg/mL
same,MIC,[2],4 µg/mL
same,MIC,[8],≤ 0.031 µg/mL
same,MIC,M. abscessus-C58,> 20 µg/mL
same,MIC,S. pneumoniae SPN-1169,≤ 0.031 µg/mL
same,MIC,[9],≤ 0.031 µg/mL
same,MIC,E. faecalis ATCC 29212,2 µg/mL
same,MIC,[3],≤ 0.031 µg/mL
same,MIC,S. epidermidis SEP-1024,≤ 0.031 µg/mL
same,MIC,E. faecalis EFA-1299,1 µg/mL
same,MIC,P. aeruginosa ATCC 27853,> 32 µg/mL
same,MIC,[4],≤ 0.031 µg/mL
same,MIC,M. smegmatis mc^2155,13.3 µg/mL
same,MIC,[15],0.0063 µg/mL
same,MIC,S. maltophilia STM-0001,16 µg/mL
same,MIC,M. abscessus-C16,> 20 µg/mL
same,MIC,[18],> 32 µg/mL
same,MIC,M. abscessus-C28,> 20 µg/mL
